Data: EP0139005A1, “ANTITUMOR COMPOSITION, METHOD FOR TREATING TUMOR, AND USE OF THE COMPOSITION FOR TREATING TUMOR” (Yoshitomi Pharmaceutical Industries, Ltd., priority 1982, dated 1984)

Key:
L1210 leukemia = L1210 leukemia implanted intraperitoneally, oral or subcutaneous treatment, survival (Experimental Example 4); assay type: in vivo, female CDF1 mice; conditions: for Average Survival Time / Life-Prolongation Ratio (%): once daily for seven days
Method: The life-prolongation ratio was calculated by the following scheme (the same scheme is applied to the subsequent experimental examples).
Life-prolongation Ratio [formula] T : Average survival days of the treated group
C : Average survival days of the control group
Animals survived over 30 days or longer were estimated as 30-day survivors, and the cases where T/C equals to or greater than 125% were regarded as effective.
A plurality of groups each consisting of five female CDF1 mice (7-8 weeks old) were respectively implanted intraperitoneally with 10 cells of L1210 leukemia. After the next day of the implantation, the test animals were administered orally or subcutaneously once daily for seven days with Y-6430 or ESCC dissolved in physiological saline, and the average survival days and life-prolongation ratios in each group were calculated.
All the test animals died of tumor within 30 days.

sarcoma 180 = assay: Sarcoma 180 implanted intraperitoneally, survival (Experimental Example 9); assay type: in vivo, male ICR mice; conditions: once daily for seven days
Method: A plurality of groups each consisting of 12 male ICR mice (6-8 weeks old) were implanted intraperitoneally with 2 x 10^6 cells of sarcoma 180. After the next day to the implantation, Y-6430 was administered intraperitoneally or subcutaneously once daily for seven days.

AH44 hepatoma = AH44 hepatoma implanted intraperitoneally, single dose, survival (Experimental Example 5); assay type: in vivo, male Donryu rats; conditions: once, three days after implantation
Description: A plurality of groups each consisting of six male Donryu rats (7-8 weeks old) were respectively implanted intraperitoneally with 10^6 cells of AH44 hepatoma. Three days after the implantation, each test animal was once administered orally or intraperitoneally with Y-6430.

CCOC(=O)[C@@H](N)CSC(=O)NC.Cl [Y-6430, S-methylcarbamoyl-L-cysteine ethyl ester hydrochloride]
Average Survival Time (L1210 leukemia; 100 mg/kg/day s.c.): 8.2 days
Life-Prolongation Ratio (%) (L1210 leukemia; 100 mg/kg/day s.c.): 103%
Average Survival Time (L1210 leukemia; 250 mg/kg/day p.o.): 9.4 days
Life-Prolongation Ratio (%) (L1210 leukemia; 250 mg/kg/day p.o.): 115%
Average Survival Time (L1210 leukemia; 250 mg/kg/day s.c.): 9.2 days
Life-Prolongation Ratio (%) (L1210 leukemia; 250 mg/kg/day s.c.): 115%
Average Survival Time (L1210 leukemia; 500 mg/kg/day p.o.): 11.4 days
Life-Prolongation Ratio (%) (L1210 leukemia; 500 mg/kg/day p.o.): 139%
Average Survival Time (L1210 leukemia; 500 mg/kg/day s.c.): 10.8 days
Life-Prolongation Ratio (%) (L1210 leukemia; 500 mg/kg/day s.c.): 135%
Average Survival Time (L1210 leukemia; 1,000 mg/kg/day p.o.): 13.8 days
Life-Prolongation Ratio (%) (L1210 leukemia; 1,000 mg/kg/day p.o.): 168%
effectiveness against L1210 leukemia (L1210 leukemia; oral and subcutaneous administration): effective
30-day Survivors (sarcoma 180; 50 mg/kg/day i.p.): 0/12
Average Survival Time (sarcoma 180; 50 mg/kg/day i.p.): 25.5 days
Number of Dead Animals (sarcoma 180; 50 mg/kg/day i.p.): 0/12
30-day Survivors (sarcoma 180; 50 mg/kg/day s.c.): 0/12
Average Survival Time (sarcoma 180; 50 mg/kg/day s.c.): 21.9 days
Number of Dead Animals (sarcoma 180; 50 mg/kg/day s.c.): 0/12
30-day Survivors (sarcoma 180; 100 mg/kg/day i.p.): 5/12
Average Survival Time (sarcoma 180; 100 mg/kg/day i.p.): 27.7 days
Number of Dead Animals (sarcoma 180; 100 mg/kg/day i.p.): 0/12
30-day Survivors (sarcoma 180; 100 mg/kg/day s.c.): 0/12
Average Survival Time (sarcoma 180; 100 mg/kg/day s.c.): 23.0 days
Number of Dead Animals (sarcoma 180; 100 mg/kg/day s.c.): 0/12
30-day Survivors (AH44 hepatoma; 500 mg/kg p.o.): 0/6
Average Survival Time (AH44 hepatoma; 500 mg/kg p.o.): 11.2 days
30-day Survivors (AH44 hepatoma; 1,000 mg/kg i.p.): 1/6
Average Survival Time (AH44 hepatoma; 1,000 mg/kg i.p.): 14.7 days
30-day Survivors (AH44 hepatoma; 1,000 mg/kg p.o.): 0/6
Average Survival Time (AH44 hepatoma; 1,000 mg/kg p.o.): 10.8 days
